The NIST ThermoML archive (doi:10.1021/je101192x)

Experiment: wn = mass fraction of the nth substance listed
Settings: for viscosity / mass density: 101 kPa, Liquid; for viscosity: Capillary tube (Ostwald / Ubbelohde) method; for mass density: Pycnometric method; for surface tension liquid-gas: Pendant drop shape

CN(CCO)CCO [N-methyldiethanolamine] + O
Settings | mass density, 288.15 K [kg/m3] | mass density, 313.15 K [kg/m3] | surface tension liquid-gas, 313.15 K [mN/m] | viscosity, 288.15 K [mPa·s] | viscosity, 313.15 K [mPa·s]
w1 = 0.1 | 1007.1 | 1001.1 | 58.71 | 1.711 | 0.905
w1 = 0.2 | 1017.5 | 1008.1 | 54.68 | 2.631 | 1.312
